The values below are quoted from earlier work in patent US7994157B2, “Method for dispersing plant sterol for beverage and a plant sterol-dispersed beverage, of which particle size is nanometer-scale in dispersed beverage” (KIP Biotech LLC, priority 2000, dated 2011).

This data set deals with serum cholesterol level. Conditions: applied form in an oil phase (margarine); U.S. Pat. No. 5,502,045.

Some results are limits rather than exact numbers.

For the substance sitostanol fatty acid ester, the “reduction of the LDL-C level” value is given as ≤ 16%.
